Values of other authors in patent publication US20140079751A1, “METHOD OF USING COMPOSITE OF SILVER NANOPARTICLES AND NANOSILICATE PLATELETS TO INHIBIT GROWTH OF SILVER-RESISTANT BACTERIA” (priority 2010, published 2014).

Tested on: silver-resistant Escherichia coli (J53pMG101)
Settings: background statement, Escherichia coli strain J53 pMG101

## silver ions
  silver ion concentration the strain can survive: more than 1 mM
